# pKi: −log10 of the molar value. Counter-ions that a name gives are not always drawn.
# Key:
# [1] = Water solubility of salt (dissolution in aqueous NaOH, freeze-dried); format: physicochemical
# Protocol: A suspension of 50 mg (0.099 mmol) of the product of Example 2C in 30 ml of water and 1.0 ml (0.099 ) of 0.1N NaOH was stirred at ambient temperature for 15 hours.
# All material was dissolved at this time. The mixture was freeze-dried to give 50 mg (quantitative yield) of a foamy water soluble solid: m.p. 215°-220° C.
# A suspension of 50 mg (0.076 mmol) of the product of Example 6 in 30 ml of water and 1.52 ml (0.152 mmol) of 0.1N NaOH was stirred at ambient temperature for 15 hours. The material was totally dissolved at this time. The mixture was freeze dried to give 50 mg (quantitative yield) of a foamy water-soluble solid: m.p. 225°-232° C.
# [2] = target: T1, DHP Site of the Calcium Channel (Oryctolagus cuniculus, UniProt P07293); test: Binding Assay for Drugs Acting at the DHP Site of the Calcium Channel (3H-nitrendipine displacement); conditions: washed rabbit skeletal muscle membranes, 0.5×10^-9 M 3H-nitrendipine, 30 min, 25° C., pH 7.4
# T1 construct: Washed rabbit skeletal muscle membranes (fraction 2-8X); from tissue; host or cells: rabbit skeletal muscle membranes (fraction 2-8X)
# T1 sequence (P07293 1-1664 limits assumed): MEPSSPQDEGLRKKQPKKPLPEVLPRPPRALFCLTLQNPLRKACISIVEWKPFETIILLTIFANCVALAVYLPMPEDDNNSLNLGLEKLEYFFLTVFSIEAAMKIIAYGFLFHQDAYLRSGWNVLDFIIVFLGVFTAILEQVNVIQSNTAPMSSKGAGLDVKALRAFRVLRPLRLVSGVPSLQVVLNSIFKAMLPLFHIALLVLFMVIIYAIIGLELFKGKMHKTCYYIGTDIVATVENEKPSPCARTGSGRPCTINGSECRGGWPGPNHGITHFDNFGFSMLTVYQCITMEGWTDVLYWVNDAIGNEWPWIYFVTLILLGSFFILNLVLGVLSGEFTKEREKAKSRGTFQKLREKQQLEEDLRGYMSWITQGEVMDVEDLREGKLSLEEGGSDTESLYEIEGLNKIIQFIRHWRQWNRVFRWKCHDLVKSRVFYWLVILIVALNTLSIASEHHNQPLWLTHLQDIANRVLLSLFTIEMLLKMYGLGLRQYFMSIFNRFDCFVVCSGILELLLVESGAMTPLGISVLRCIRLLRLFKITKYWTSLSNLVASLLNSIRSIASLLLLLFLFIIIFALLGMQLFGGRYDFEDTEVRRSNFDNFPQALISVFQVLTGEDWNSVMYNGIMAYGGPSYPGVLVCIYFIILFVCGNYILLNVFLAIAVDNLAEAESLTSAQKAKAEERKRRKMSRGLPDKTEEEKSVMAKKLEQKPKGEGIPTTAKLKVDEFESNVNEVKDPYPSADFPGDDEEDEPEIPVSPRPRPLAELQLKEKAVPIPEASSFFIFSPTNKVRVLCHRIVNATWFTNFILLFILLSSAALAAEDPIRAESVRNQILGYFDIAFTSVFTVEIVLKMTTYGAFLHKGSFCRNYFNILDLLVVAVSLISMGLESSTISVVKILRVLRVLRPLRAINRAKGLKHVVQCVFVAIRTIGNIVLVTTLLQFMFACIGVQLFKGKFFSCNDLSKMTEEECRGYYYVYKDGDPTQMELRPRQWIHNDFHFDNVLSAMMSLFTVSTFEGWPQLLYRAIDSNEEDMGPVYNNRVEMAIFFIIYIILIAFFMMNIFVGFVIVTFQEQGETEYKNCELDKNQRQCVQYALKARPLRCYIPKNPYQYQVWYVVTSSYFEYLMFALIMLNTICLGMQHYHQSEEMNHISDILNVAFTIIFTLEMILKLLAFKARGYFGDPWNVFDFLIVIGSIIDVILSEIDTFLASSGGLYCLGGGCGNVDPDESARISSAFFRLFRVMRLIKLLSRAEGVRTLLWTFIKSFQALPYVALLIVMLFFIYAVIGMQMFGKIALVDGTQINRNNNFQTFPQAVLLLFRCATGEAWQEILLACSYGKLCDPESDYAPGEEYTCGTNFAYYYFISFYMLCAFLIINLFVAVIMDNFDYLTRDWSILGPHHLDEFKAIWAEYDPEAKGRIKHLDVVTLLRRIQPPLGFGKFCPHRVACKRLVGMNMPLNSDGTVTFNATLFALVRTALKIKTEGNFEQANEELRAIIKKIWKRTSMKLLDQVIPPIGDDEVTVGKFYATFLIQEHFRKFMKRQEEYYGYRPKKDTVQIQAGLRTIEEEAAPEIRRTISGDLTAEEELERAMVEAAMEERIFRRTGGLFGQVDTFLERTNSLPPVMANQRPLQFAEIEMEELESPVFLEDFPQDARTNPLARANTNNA
# T1 sequence (P13806 27-960 partner limits assumed): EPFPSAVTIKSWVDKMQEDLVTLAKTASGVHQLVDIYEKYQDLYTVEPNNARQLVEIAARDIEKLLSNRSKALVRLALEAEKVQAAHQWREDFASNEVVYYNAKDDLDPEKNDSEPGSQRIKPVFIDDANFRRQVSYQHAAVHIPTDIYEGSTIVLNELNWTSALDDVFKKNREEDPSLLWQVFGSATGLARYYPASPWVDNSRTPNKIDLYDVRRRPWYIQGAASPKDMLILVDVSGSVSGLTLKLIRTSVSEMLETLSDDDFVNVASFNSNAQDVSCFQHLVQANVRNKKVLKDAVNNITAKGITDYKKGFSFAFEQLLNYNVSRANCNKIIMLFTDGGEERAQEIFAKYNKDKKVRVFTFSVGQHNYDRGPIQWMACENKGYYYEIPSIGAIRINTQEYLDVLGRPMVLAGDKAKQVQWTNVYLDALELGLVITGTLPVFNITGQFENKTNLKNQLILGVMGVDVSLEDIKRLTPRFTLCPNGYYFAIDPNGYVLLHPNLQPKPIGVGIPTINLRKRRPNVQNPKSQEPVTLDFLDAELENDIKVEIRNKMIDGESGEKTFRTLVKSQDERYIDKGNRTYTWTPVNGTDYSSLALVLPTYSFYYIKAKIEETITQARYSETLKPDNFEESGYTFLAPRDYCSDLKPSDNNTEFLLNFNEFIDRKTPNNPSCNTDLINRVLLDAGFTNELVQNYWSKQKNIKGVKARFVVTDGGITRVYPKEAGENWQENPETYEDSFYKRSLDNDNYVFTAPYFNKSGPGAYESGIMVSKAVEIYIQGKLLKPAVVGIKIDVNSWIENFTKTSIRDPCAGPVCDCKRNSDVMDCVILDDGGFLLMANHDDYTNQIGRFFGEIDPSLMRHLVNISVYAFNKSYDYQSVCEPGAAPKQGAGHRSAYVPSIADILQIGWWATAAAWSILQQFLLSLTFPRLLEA
# T1 sequence (P13806 961-1106 partner limits assumed): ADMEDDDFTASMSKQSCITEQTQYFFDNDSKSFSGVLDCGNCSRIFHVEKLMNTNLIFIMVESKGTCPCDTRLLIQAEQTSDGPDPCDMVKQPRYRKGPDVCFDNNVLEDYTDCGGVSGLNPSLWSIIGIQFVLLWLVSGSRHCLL
# T1 sequence (P19517 whole entry partner): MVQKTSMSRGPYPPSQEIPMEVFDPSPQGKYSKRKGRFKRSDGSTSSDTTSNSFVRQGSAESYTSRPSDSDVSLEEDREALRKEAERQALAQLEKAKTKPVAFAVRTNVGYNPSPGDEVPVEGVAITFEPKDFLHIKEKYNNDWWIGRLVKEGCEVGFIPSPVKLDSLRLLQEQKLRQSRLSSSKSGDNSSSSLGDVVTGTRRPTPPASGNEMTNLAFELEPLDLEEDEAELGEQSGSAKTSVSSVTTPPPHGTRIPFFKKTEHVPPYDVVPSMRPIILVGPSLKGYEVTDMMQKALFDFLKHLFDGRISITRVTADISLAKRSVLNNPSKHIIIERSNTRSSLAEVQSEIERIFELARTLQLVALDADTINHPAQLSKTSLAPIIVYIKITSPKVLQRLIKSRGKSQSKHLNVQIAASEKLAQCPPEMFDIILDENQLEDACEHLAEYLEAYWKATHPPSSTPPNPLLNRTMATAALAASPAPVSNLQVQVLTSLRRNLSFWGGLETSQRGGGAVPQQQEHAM
# T1 sequence (P19518 whole entry partner): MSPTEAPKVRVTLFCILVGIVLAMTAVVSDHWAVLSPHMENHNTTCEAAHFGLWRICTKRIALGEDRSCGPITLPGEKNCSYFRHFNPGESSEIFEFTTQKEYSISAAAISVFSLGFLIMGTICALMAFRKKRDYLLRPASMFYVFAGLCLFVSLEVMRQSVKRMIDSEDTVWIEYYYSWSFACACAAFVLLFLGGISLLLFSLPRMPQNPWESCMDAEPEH
# Protocol: The incubation tubes were rapidly chilled in ice and the contents filtered through Whatman GF/B filters on a Millipore manifold, and the filters were placed in scintillation counting vials with 8 ml of Cytoscint cocktail, disrupted mechanically by shaking for 30 minutes and counted.
# Drugs which interact at the DHP site will reduce this specific binding in a dose-dependent manner. The assays for the compounds of this invention were made with logarithmically spaced concentrations, the data were plotted on a probit-concentration plot, and the IC50 read off. The KI of the drug was calculated by standard techniques.
# [3] = test system: Systolic arterial blood pressure; test: Hypotensive Activity (oral), indirect tail cuff method in spontaneous hypertensive rats (SHR); format: in vivo, spontaneous hypertensive rates (SHR); conditions: 10 mmol/Kg in polyethylene glycol
# Protocol: Systolic arterial blood pressure was measured with the indirect tail cuff method in spontaneous hypertensive rates (SHR). The change in baseline pressure (170-210 mm Hg) was recorded at various time points following oral administration of 10 mmol/Kg of the test compound in polyethylene glycol.
Compound,solubility in water (in words) [1],pKi [2],"Mean Change (Decrease) in Systolic Blood Pressure, 12 min after drug administration [3]","Mean Change (Decrease) in Systolic Blood Pressure, 30 min after drug administration [3]","Mean Change (Decrease) in Systolic Blood Pressure, 60 min after drug administration [3]","Mean Change (Decrease) in Systolic Blood Pressure, 120 min after drug administration [3]","Mean Change (Decrease) in Systolic Blood Pressure, 240 min after drug administration [3]","Mean Change (Decrease) in Systolic Blood Pressure, 360 min after drug administration [3]"
"COC(=O)C1=C(C)NC(C)=C(C(=O)OCC(O)C2OC(C)(C)OC2C(=O)O)C1c1cccc([N+](=O)[O-])c1 (stereo not drawn) [Example 11, 2,6-Dimethyl-3-(carboribonic acid-gamma-lactone dimethylketal)(3-nitrophenyl)-5-(carbomethoxy)-1,4-dihydropyridine, sodium salt]",water soluble,–,–,–,–,–,–,–
"CC1=C(C(=O)OCC2COC(C)(C)O2)C(c2cccc([N+](=O)[O-])c2)C(C(=O)OCC2COC(C)(C)O2)=C(C)N1 (stereo not drawn) [Example 5, 2,6-Dimethyl-3,5-di-(2,2-dimethyl-1,3-dioxolan-4-carbomethoxy)-4-(3-nitrophenyl)-1,4-dihydropyridine]",–,7.54,17 mm Hg,19 mm Hg,13 mm Hg,17 mm Hg,19 mm Hg,19 mm Hg
"CC1=C(C(=O)OCC(O)C2OC(C)(C)OC2C(=O)O)C(c2cccc([N+](=O)[O-])c2)C(C(=O)OCC(O)C2OC(C)(C)OC2C(=O)O)=C(C)N1 (stereo not drawn) [Example 13, 2,6-Dimethyl-3,5-di-(carboribonic acid-gamma-lactone dimethylketal)-4-(3-nitrophenyl-1,4-dihydropyridine, disodium salt]",water-soluble,–,–,–,–,–,–,–
"CC1=C(C(=O)OCC2OC(=O)C3OC(C)(C)OC23)C(c2cccc([N+](=O)[O-])c2)C(C(=O)OCC2OC(=O)C3OC(C)(C)OC23)=C(C)N1 (stereo not drawn) [Example 6, 2,6-Dimethyl-3,5-di(carboriboxy-gamma-lactone dimethylketal)-4-(3-nitrophenyl)-1,4-dihydropyridine]",–,7.03,–,–,–,–,–,–
"COC(=O)C1=C(C)NC(C)=C(C(=O)OCC2COC(C)(C)O2)C1c1cccc([N+](=O)[O-])c1 (stereo not drawn) [Example 1B, 2,6-Dimethyl-3-(2,2-dimethyl-1,3-dioxolan-4-carbomethoxy)-4-(3-nitrophenyl)-5-carbomethoxy-1,4 dihydropyridine]",–,8.35,–,–,–,36 mm Hg,34 mm Hg,19 mm Hg
"COC(=O)C1=C(C)NC(C)=C(C(=O)OCC(O)CO)C1c1cccc([N+](=O)[O-])c1 (stereo not drawn) [Example 4, 2,6-Dimethyl-5-carbomethoxy-4-(3-nitrophenyl)-3-(2,3 dihydroxycarbopropoxy)-1,4-dihydropyridine]",–,6.85,13 mm Hg,16 mm Hg,18 mm Hg,12 mm Hg,6 mm Hg,4 mm Hg
"COC(=O)C1=C(C)NC(C)=C(C(=O)OCC2COC3(CCCC3)O2)C1c1cccc([N+](=O)[O-])c1 (stereo not drawn) [Example 4B, 2,6-Dimethyl-5-carbomethoxy-4-(3-nitrophenyl)-3-(1,4-dioxaspiro[4,4]non-2-yl-carbomethoxy)-1,4-dihydropyridine]",–,8.64,–,–,–,17 mm Hg,23 mm Hg,27 mm Hg
"COC(=O)C1=C(C)NC(C)=C(C(=O)OC)C1c1ccccc1[N+](=O)[O-] [Nifedipine, nifedipine, reference compound]",–,–,6 mm Hg,36 mm Hg,20 mm Hg,11 mm Hg,–,–
"COC(=O)C1=C(C)NC(C)=C(C(=O)OCC2OC(=O)C3OC(C)(C)OC23)C1c1cccc([N+](=O)[O-])c1 (stereo not drawn) [Example 2C, 2,6-Dimethyl-3-(carboriboxy-gamma-lactone dimethylketal)-4-(3-nitrophenyl)-5-carbomethoxy-1,4-dihydropyridine]",–,7.52,40 mm Hg,37 mm Hg,31 mm Hg,29 mm Hg,22 mm Hg,20 mm Hg

# Source: patent US4912223A, “1,4-Dihydropyridines” (Nelson Research & Development Co., priority 1988, dated 1990)
